Earlier results, collected in patent US10576045B2 (priority 2012, dated 2020).

Assays:
[1] = 60 mg/day
[2] = system: serotonin reuptake
[3] = obese patients with BED; 8 mg/day of reboxetine for 12 days
[4] = reboxetine 4 mg/day coadministered with olanzapine
[5] = system: anticholinergic binding; conditions: different animal models
[6] = system: monoamine oxidase (MAO)
[7] = system: dopamine reuptake

Row | SMILES | difference between treatment and placebo groups ([1]; end of the study, week 52) | weight loss compared to placebo ([1]; following 28 weeks of treatment) | serotonin reuptake inhibitory activity [2] | binge eating behavior [3] | weight-gain associated with olanzapine administration [4] | anticholinergic binding activity [5] | monoamine oxidase (MAO) inhibitory activity [6] | dopamine reuptake inhibitory activity [7]
1 | CNCCC(Oc1ccc(C(F)(F)F)cc1)c1ccccc1 (racemic) [fluoxetine, (+−)-N-methyl-3-(p-trifluoromethylphenoxy)-3-phenylpropyl-amine] | no difference | statistically significant weight loss |  |  |  |  |  | 
2 | CCOc1ccccc1O[C@H](c1ccccc1)[C@H]1CNCCO1 (relative stereo) [reboxetine, (R*,R*)-2-[(2-ethoxyphenoxy)-phenyl-methyl]morpholine] |  |  | only marginal | reduced binge eating behavior | reduced the weight-gain | no anticholinergic binding activity | substantially devoid | no
